# Measured values published in article PMC3340335, “Differential Scanning Fluorometry Signatures as Indicators of Enzyme Inhibitor Mode of Action: Case Study of Glutathione S-Transferase” (PLoS ONE, 2012).
# Like-named read-outs stand apart in the source and are kept apart here.
# Tests used:
# SjGST [1] = molecular target: T1, SjGST (Schistosoma japonicum, UniProt P08515); test: biochemical; assay type: binding; conditions: for ΔTm at 200 µM / Difference in thermal shift between GSH-present (2 mM) and GSH-absent curves at top compound concentration: 200 µM compound; for ΔTm at 200 µM / Difference in thermal shift between GSH-present (2 mM) and GSH-absent curves across compound concentrations / Difference in thermal shift between GSH-present (2 mM) and GSH-absent curves at top compound concentration: 2 mM GSH versus no GSH; for ΔTm at 200 µM: read-out: Difference in thermal shift between GSH-present (2 mM) and GSH-absent curves at top compound concentration; for Thermal shift (ΔTm versus vehicle control) of SjGST: absence of GSH, top compound concentration, 200 µM, 1 µM SjGST; for Difference in thermal shift between GSH-present (2 mM) and GSH-absent curves across compound concentrations: across all concentrations up to 200 µM
# T1 construct: purchased GenScript (Piscataway, NJ)
# T1 sequence (P08515 whole entry): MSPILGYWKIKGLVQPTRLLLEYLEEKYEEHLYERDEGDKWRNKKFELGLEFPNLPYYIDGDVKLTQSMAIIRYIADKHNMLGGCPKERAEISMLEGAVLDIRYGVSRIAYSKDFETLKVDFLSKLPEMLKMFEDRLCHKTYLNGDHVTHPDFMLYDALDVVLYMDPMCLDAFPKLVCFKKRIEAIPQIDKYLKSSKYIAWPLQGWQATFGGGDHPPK
# Description: Compounds were diluted (1∶2, 7-points) in DMSO row-wise down to 10 µM in a 96-well polypropylene round bottom mother plate, with DMSO alone in the first column of each plate. […] The PCR plates were centrifuged at 1000 rpm for 10 s to ensure good mixing, and sealed with Optical-Quality Sealing Tape (Bio-Rad). […] The mid temperature of the protein thermal melt profiles, Tm, was determined using EXCEL-based custom calculation software available at (ftp://ftp.sgc.ox.ac.uk/pub/biophysics), and fitting of the data to the Boltzmann equation was performed using GraphPad Prism 4. The differences in Tm between vehicle control and compound-containing samples were calculated as thermal shift.
# SjGST [2] = molecular target: T1, SjGST; test: SjGST luciferase-coupled luminescence enzymatic assay (PBI 1155 substrate, 100 µM GSH); assay type: biochemical; conditions: for inhibition at 58 µM: read-out: % Inhibition at 58 μM against SjGST
# Description: Compound inhibitory activities were evaluated using a previously reported GST enzymatic assay. Three µl of reagents (5 nM final concentration of SjGST (or buffer serving as a no-enzyme control) plus 100 µM final concentration of GSH) were dispensed into 1536-well Greiner white solid-bottom assay plates. Compounds (23 nL) were transferred via Kalypsys pintool equipped with 1,536-pin array. The plates were incubated at room temperature for 15 min before the addition of 20 µM substrate PBI 1155 to initiate the reaction. The plates were centrifuged at 1000 rpm for 15 s and incubated at room temperature for 40 min before the addition 4 µl luciferin detection reagent followed by another 15-s centrifugation at 1000 rpm and 15-min incubation. The plates were then read on ViewLux high-throughput CCD imager (PerkinElmer, Waltham, MA) with a clear emission filter and under standard luminescence settings. Percent inhibition was calculated based on the enzyme-containing and no-enzyme controls using Excel and GraphPad Prism 4.
# hGST A1-1 = molecular target: T2, hGST A1-1 (Homo sapiens, UniProt P08263); test: Thermal shift assay (DSF) with hGST A1-1; assay type: binding; conditions: concentration-response, Fig. 7A-C
# T2 construct: purchased Oxford Biomedical Research (Oxford, MI)
# T2 sequence (P08263 1-222): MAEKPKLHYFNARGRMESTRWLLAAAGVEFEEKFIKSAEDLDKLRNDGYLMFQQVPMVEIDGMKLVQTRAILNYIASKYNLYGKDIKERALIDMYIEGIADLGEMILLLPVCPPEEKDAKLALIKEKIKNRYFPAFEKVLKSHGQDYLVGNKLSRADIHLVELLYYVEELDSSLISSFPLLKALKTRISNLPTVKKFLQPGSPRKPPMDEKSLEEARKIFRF
# Description: (§1) Compounds were diluted (1∶2, 7-points) in DMSO row-wise down to 10 µM in a 96-well polypropylene round bottom mother plate, with DMSO alone in the first column of each plate. […] The PCR plates were centrifuged at 1000 rpm for 10 s to ensure good mixing, and sealed with Optical-Quality Sealing Tape (Bio-Rad). The plates were subsequently heated approximately 2 min after sample mixing, on an iQ5 thermal cycler at intervals of 1°C from 20 to 95°C, with a ramping rate of 6°C min^−1. The set-up of the filter configurations was customized to accommodate the optimal excitation and emission wavelengths for SYPRO Orange (Ex: 490/Em: 575 nm). The mid temperature of the protein thermal melt profiles, Tm, was determined using EXCEL-based custom calculation software available at (ftp://ftp.sgc.ox.ac.uk/pub/biophysics), and fitting of the data to the Boltzmann equation was performed using GraphPad Prism 4. The differences in Tm between vehicle control and compound-containing samples were calculated as thermal shift.
# (§2) The study was subsequently extended to human GST isozymes by testing one representative compound from each category against hGST A1 and M1 (hGST P1 was not pursued due to the protein's lack of clear melt transition, data not shown).
# hGST M1-1 = molecular target: T3, hGST M1-1 (Homo sapiens, UniProt P09488); test: Thermal shift assay (DSF) with hGST M1-1; assay type: binding; conditions: concentration-response, Fig. 7D-F
# T3 construct: purchased Oxford Biomedical Research (Oxford, MI)
# T3 sequence (P09488 1-218): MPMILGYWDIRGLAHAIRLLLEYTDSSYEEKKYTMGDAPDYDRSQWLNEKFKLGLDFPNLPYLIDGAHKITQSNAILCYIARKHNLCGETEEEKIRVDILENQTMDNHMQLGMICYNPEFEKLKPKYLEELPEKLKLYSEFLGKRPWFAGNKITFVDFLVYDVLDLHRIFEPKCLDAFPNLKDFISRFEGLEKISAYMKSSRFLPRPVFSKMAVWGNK
# Description: as §1, §2
# [3] = 5 nM SjGST, 100 µM GSH, 20 µM PBI 1155, read-out: IC50 against SjGST
smiles,measurement,setting,value
NC(CCC(=O)NC(CSc1ccc(C(=O)OCCOCCOCCOCCOC(=O)c2ccc(SCC(NC(=O)CCC(N)C(=O)O)C(=O)NCC(=O)O)c([N+](=O)[O-])c2)cc1[N+](=O)[O-])C(=O)NCC(=O)O)C(=O)O (stereo not shown) [Bis-(NB-GS)],ΔTm at 200 µM,SjGST [1],1.2 °C
same,Thermal shift (ΔTm versus vehicle control) of SjGST,SjGST [1],11.1 °C
same,IC50,SjGST [2]; [3],670 nM
same,Fold greater inhibitory potency of Bis-(NB-GS) versus NBD-GS,"SjGST [2]; ratio of IC50 values, 0.67 µM versus 2.3 µM",over 3 fold
"C=C(CC)C(=O)c1ccc(OCC(=O)O)c(Cl)c1Cl [Ethacrynic acid, ethacrynic acid]",ΔTm at 200 µM,SjGST [1],11.5 °C
same,Thermal shift (ΔTm versus vehicle control) of SjGST,SjGST [1],1.8 °C
same,Glutathione-dependency trend of thermal shift curves (with versus without 2 mM GSH),hGST A1-1,diverging trend
same,Glutathione-dependency trend of thermal shift curves (with versus without 2 mM GSH),hGST M1-1,diverging trend
same,IC50,SjGST [2]; [3],140 nM
"N[C@@H](CCC(=O)N[C@@H](CS)C(=O)NCC(=O)O)C(=O)O [GSH, γ-Glu-Cys-Gly]",ΔTm at 2000 µM,"SjGST [1]; 2 mM GSH, at low compound concentrations, read-out: Enhancement in thermal shift baseline due to GSH",~4 °C
"O=c1c(O)c(-c2cc(O)c(O)c(O)c2)oc2cc(O)cc(O)c12 [Myricetin, myricetin]",Thermal shift (ΔTm versus vehicle control) of SjGST,SjGST [1],over 3 °C
same,Difference in thermal shift between GSH-present (2 mM) and GSH-absent curves across compound concentrations,SjGST [1],approximately 4 °C
same,IC50,SjGST [2],6600 nM
O=[N+]([O-])c1ccc(SCCCCCCCCO)c2nonc12 [NBD-8-OH],ΔTm at 200 µM,SjGST [1],10.5 °C
same,Thermal shift (ΔTm versus vehicle control) of SjGST,SjGST [1],failed to display any significant thermal stabilization effect
same,IC50,SjGST [2]; [3],660 nM
NC(CCC(=O)NC(CSc1ccc([N+](=O)[O-])c2nonc12)C(=O)NCC(=O)O)C(=O)O (stereo not shown) [NBD-GS],ΔTm at 200 µM,SjGST [1],4 °C
same,Thermal shift (ΔTm versus vehicle control) of SjGST,SjGST [1],5.9 °C
same,IC50,SjGST [2]; [3],2300 nM
"O=c1c(O)c(-c2ccc(O)c(O)c2)oc2cc(O)cc(O)c12 [Quercetin, quercetin]",Thermal shift (ΔTm versus vehicle control) of SjGST,SjGST [1],over 3 °C
same,Difference in thermal shift between GSH-present (2 mM) and GSH-absent curves across compound concentrations,SjGST [1],approximately 4 °C
same,Glutathione-dependency trend of thermal shift curves (with versus without 2 mM GSH),hGST A1-1,parallel trend
same,Glutathione-dependency trend of thermal shift curves (with versus without 2 mM GSH),hGST M1-1,parallel trend
same,IC50,SjGST [2]; [3],5000 nM
"CCCCSC[C@H](NC(=O)CC[C@H](N)C(=O)O)C(=O)NCC(=O)O [S-butyl GSH, S-butyl glutathione]",Difference in thermal shift between GSH-present (2 mM) and GSH-absent curves at top compound concentration,SjGST [1],1.8 °C
same,inhibition at 58 µM,SjGST [2],35%
"CCCCCCSC[C@H](NC(=O)CC[C@H](N)C(=O)O)C(=O)NCC(=O)O [S-hexyl GSH, S-hexyl glutathione]",Difference in thermal shift between GSH-present (2 mM) and GSH-absent curves at top compound concentration,SjGST [1],1.8 °C
same,inhibition at 58 µM,SjGST [2],58%
"CSC[C@H](NC(=O)CC[C@H](N)C(=O)O)C(=O)NCC(=O)O [S-methyl GSH, S-methyl glutathione]",Thermal shift (ΔTm versus vehicle control) of SjGST,SjGST [1],< 2 °C
same,Inhibition of SjGST at concentrations up to 200 µM,SjGST [2]; tested up to 200 µM,did not show detectable inhibition
"CCCCCCCCSC[C@H](NC(=O)CC[C@H](N)C(=O)O)C(=O)NCC(=O)O [S-octyl GSH, S-octyl glutathione]",Difference in thermal shift between GSH-present (2 mM) and GSH-absent curves at top compound concentration,SjGST [1],0.45 °C
same,Glutathione-dependency trend of thermal shift curves (with versus without 2 mM GSH),hGST A1-1,converging trend
same,Glutathione-dependency trend of thermal shift curves (with versus without 2 mM GSH),hGST M1-1,converging trend
same,inhibition at 58 µM,SjGST [2],83%
